Like-named read-outs stand apart in the source and are kept apart here.
Key:
[1] = Metabolic stability in pooled human liver microsomes (HLM); conditions: pooled human liver microsomes, 3 μM drug; Low/Intermediate/High
Method in brief: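 Pooled human liver microsomes (0.9 mg/ml final) in 0.1 M potassium phosphate pH 7.4 with 0.033 mM MgCl2 and an NADPH-regenerating system. Compound pre-incubated 2 min, reaction started with cofactors, run 10 min at 37° C, quenched in acetonitrile and analysed by LC/MS.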

HeLa cells = assay: Cytotoxicity assay in HeLa cells (MTT dye reduction, CC50); conditions: cytotoxicity; Yes = CC50 above 100 uM, No = not
Method in brief: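 HeLa cells expressing CD4 and CCR5, grown in DMEM with 10% FBS, were used for cytotoxicity testing by MTT dye reduction; the text gives no further cytotoxicity conditions. The parallel antiviral assay exposed the same cells to compound at final <10 μM for 72 h.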

[2] = Rat IV and PO pharmacokinetic studies; conditions: male, Sprague-Dawley, in vivo; for clearance: iv, 1 mg/kg, CL, iv dosing at 1 mg/kg; for AUC(0-t): po, 5 mg/kg, AUC 24 h, oral dosing at 5 mg/kg
Experimental: Rat Pharmacokinetic Studies: For the IV and PO pharmacokinetic studies of compounds in rats, the compound was dissolved in PEG-400/ethanol (90/10) as a solution. Rat. Male Sprague-Dawley rats (300-350 g, Hilltop Lab Animals, Inc., Scottdale, Pa.) with cannulas implanted in the jugular vein were used. The rats were fasted overnight in the PO pharmacokinetic studies. Blood samples of 0.3 ml were collected from the jugular vein in EDTA-containing microtainer tubes (Becton Dickinson, Franklin Lakes, N. J.), and centrifuged to separate plasma. In the IV study, the test compound was delivered at 1 mg/kg as a bolus over 0.5 min (n=3). […] Quantitation of Compounds in Plasma. […] The resulting supernates were separated from the precipitated proteins by centrifugation for 10 minutes and transferred to autosampler vials. Samples were either prepared manually, or with the use of the Tomtec automated liquid handler. An aliquot of 5 μL was injected for analysis. The HPLC system consisted of two Shimadzu LC10AD pumps (Columbia, Md.), a Shimadzu SIL-HTC autosampler (Columbia, Md.), and a Hewlett Packard Series 1100 column compartment (Palo Alto, Calif.). The column was a YMC Pro C18 (2.0×50 mm, 3 μm particles, Waters Co., Milford, Mass.), maintained at 60° C. and a flow rate of 0.3 ml/min. The mobile phase consisted of 10 mM ammonium formate and 0.1% formic acid in water (A) and 100% 10 mM ammonium formate and 0.1% formic acid in methanol (B). […] The mobile phase was then returned to initial conditions and the column re-equilibrated for 1 minute. Total analysis time was 4 minutes. The HPLC was interfaced to a Micromass Quattro LC. Ultra high purity nitrogen was used as the nebulizing and desolvation gas at flow rates of 100 L/hr for nebulization and 1100 L/hr for desolvation. The desolvation temperature was 300° C. and the source temperature was 150° C. Data acquisition utilized selected reaction monitoring (SRM). Ions representing the (M+H)^+ species for the compound and the internal standard were selected in MS 1 and collisionally dissociated with argon at a pressure of 2×10^−3 torr to form specific product ions which were subsequently monitored by MS2.
For accuracy, the determined measure of viral inhibition is an EC50; but the minimum plasma concentrations which should be maintained in a patient is generally believed to be at least four or five fold higher. […] Lower is better. • 4) Estimating potential exposure in man by measuring parameters such as AUC and rate of clearance by oral and iv dosing in rats. High exposure and low clearance was desired.
The rat model is an initial model used to assess potential for exposure in man.

HIV-1 = HIV-1 single-round infectious luciferase reporter virus (pseudotype) assay in HeLa CD4 CCR5 cells; format: cell-based
Method in brief: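 Reporter pseudovirus produced in 293 cells infected HeLa cells expressing CD4/CCR5 at MOI ~0.01, with compound present at <10 μM final. Infection was quantified as luciferase luminescence after 72 h.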

[3] = Human immunodeficiency virus 1, HeLa-CD4/CCR5, 72 h, read-out: EC50 Group from Table 1, HeLa CD4 CCR5 cells, luciferase reporter virus, harvested 72 h after infection
[4] = Human immunodeficiency virus 1, HeLa-CD4/CCR5, read-out: EC50 category, HIV-1 single-round reporter virus assay, category 1/2/3 per Table A1 key
[5] = Human immunodeficiency virus 1, HeLa-CD4/CCR5, read-out: EC50 Group from TABLE 1, HeLa CD4 CCR5 cells, single-round infectious luciferase reporter virus
[6] = Human immunodeficiency virus 1, HeLa-CD4/CCR5, read-out: EC50 Group from Table 1, Table 4, HeLa CD4 CCR5 cells, single-round luciferase reporter virus
[7] = Human immunodeficiency virus 1, HeLa-CD4/CCR5, read-out: EC50 Group from Table 1, Table 2-1, HeLa CD4 CCR5 cells, single-round luciferase reporter virus

Compound | HLM predicted human clearance class [1] | CC50 > 100 uM (HeLa cells) | clearance [2] | AUC(0-t) [2] | EC50 (HIV-1; [3]) | EC50 (HIV-1; [4]) | EC50 (HIV-1; [5]) | EC50 (HIV-1; [6]) | EC50 (HIV-1; [7])
C[C@@H]1CN(C(=O)C(=O)c2c[nH]c3c(-n4nccn4)ccnc23)CCN1C(=O)c1ccccc1 [Example 355] | Low (0-0.100) | Yes | 13.9 ± 5.3 mL/min/kg | 3.3 ± 0.77 µg·h/mL | < 1000 nM | 0.2 to 1000 nM |  |  | 
COc1cnc(-n2ccnc2)c2[nH]cc(C(=O)C(=O)N3CCN(C(=O)c4ccccc4)CC3)c12 [Example 193, 1-benzoyl-4-[(4-methoxy-7-(1-imidazolyl)-6-azaindol-3-yl)-oxoacetyl]piperazine] | Low (0-0.100) | No | 4.5 ± 0.4 mL/min/kg | 14 ± 8 µg·h/mL |  | < 0.2 nM | < 1000 nM |  | 
O=C(C(=O)N1CCN(C(=O)c2ccccc2)CC1)c1c[nH]c2c(-n3nccn3)ccnc12 [Example 205, 1-(4-benzoyl-piperazin-1-yl)-2-(7-[1,2,3]triazol-2-yl-1H-pyrrolo[3,2-b]pyridin-3-yl)-ethane-1,2-dione] | Low (0-0.100) | Yes | 5.4 ± 0.4 mL/min/kg | 9.6 ± 1.2 µg·h/mL |  | 0.2 to 1000 nM |  | < 1000 nM | 
Nc1ccn(-c2ncc(F)c3c(C(=O)C(=O)N4CCN(C(=O)c5ccccc5)CC4)c[nH]c23)n1 [Example 309] | Low (0-0.100) | Yes | 34.3 ± 2.6 mL/min/kg | 0.09 ± 0.05 µg·h/mL |  | < 0.2 nM | < 1000 nM |  | 
CCc1ncn(-c2ncc(OC)c3c(C(=O)C(=O)N4CCN(C(=O)c5ccccc5)[C@H](C)C4)c[nH]c23)n1 [Example 322] | Low (0-0.100) | Yes | 1.8 ± 0.4 mL/min/kg | 82 ± 23 µg·h/mL |  | < 0.2 nM |  |  | < 1000 nM
O=C(C(=O)N1CCN(C(=O)c2ccccc2)CC1)c1c[nH]c2c(-c3ncco3)ccnc12 [Example 204] | Low (0-0.100) | Yes | 10 ± 1.3 mL/min/kg | 12 ± 1.4 µg·h/mL |  | 0.2 to 1000 nM |  | < 1000 nM | 
COc1cnc(-c2cnccn2)c2[nH]cc(C(=O)C(=O)N3CCN(C(=O)c4ccccn4)CC3)c12 [Example 102, 1-picolinoyl-4-[(4-methoxy-7-(pyrazin-2-yl)-6-azaindol-3-yl)-oxoacetyl]piperazine] | Low (0-0.100) | Yes | 12 ± 5.5 mL/min/kg | 6.9 ± 1.3 µg·h/mL |  | 0.2 to 1000 nM | < 1000 nM |  | 
COc1cnc(-n2ccc(CO)n2)c2[nH]cc(C(=O)C(=O)N3CCN(C(=O)c4ccccc4)[C@H](C)C3)c12 [Example 236, (R)-1-benzoyl-2-methyl-4-[(4-methoxy-7-(3-hydroxylmethyl-pyrazol-1-yl)-6-azaindol-3-yl)-oxoacetyl]piperazine] | Low (0-0.100) | Yes | 29 ± 6.7 mL/min/kg | 0.56 ± 0.25 µg·h/mL |  | < 0.2 nM |  |  | < 1000 nM
COc1cnc(-n2ccc(C)n2)c2[nH]cc(C(=O)C(=O)N3CCN(C(=O)c4ccccc4)CC3)c12 [Example 190, 1-benzoyl-4-[(4-methoxy-7-(3-methyl-pyrazol-1-yl)-6-azaindol-3-yl)-oxoacetyl]piperazine] | Low (0-0.100) | Yes | 3.7 ± 1 mL/min/kg | 7.4 ± 3.4 µg·h/mL |  | < 0.2 nM | < 1000 nM |  | 
C[C@@H]1CN(C(=O)C(=O)c2c[nH]c3c(-c4nccs4)ccnc23)CCN1C(=O)c1ccccc1 [Example 354] | Low (0-0.100) | Yes | 11.2 ± 0.8 mL/min/kg | 1.26 µg·h/mL | < 1000 nM | 0.2 to 1000 nM |  |  | 
COc1cnc(-n2cncn2)c2[nH]cc(C(=O)C(=O)N3CCN(C(=O)c4ccccc4)[C@H](C)C3)c12 [Example 245, (R)-1-benzoyl-2-methyl-4-[(4-methoxy-7-(1,2,4-triazol-1-yl)-6-azaindol-3-yl)-oxoacetyl]piperazine] | Low (0-0.100) | Yes | 5.6 ± 1.8 mL/min/kg | 12.1 ± 1.3 µg·h/mL |  | < 0.2 nM |  |  | < 1000 nM
C[C@@H]1CN(C(=O)C(=O)c2c[nH]c3c(-c4ncco4)ccnc23)CCN1C(=O)c1ccccc1 [Example 353] | Low (0-0.100) | Yes | 5.6 ± 1.1 mL/min/kg | 1360 ± 307 µg·h/mL | < 1000 nM | 0.2 to 1000 nM |  |  | 
COc1cnc(-c2cnc(N)cn2)c2[nH]cc(C(=O)C(=O)N3CCN(C(=O)c4ccccc4)[C@H](C)C3)c12 [Example 266] | Low (0-0.100) | Yes | 37.4 ± 3.2 mL/min/kg | 0.16 ± 0.04 µg·h/mL |  | < 0.2 nM |  |  | < 1000 nM
